Measurements published in ChEMBL document CHEMBL3392998 (J Med Chem, 2014).

Assays:
[1] = biological target: Human immunodeficiency virus type 1 protease (Human immunodeficiency virus 1, UniProt Q72874, A71V/G73S/I84V/L10I/L63P/L90M); assay: Inhibition of multidrug resistant HIV-1 protease L10I/L63P/A71V/G73S/I84V/L90M mutant using fluorogenic peptide substrate incubated for 30 mins prior to substrate addition measured after 10 mins by FRET assay
Protease = Protease (Human immunodeficiency virus 1, UniProt Q9YQ12); assay: Inhibition of wild-type HIV-1 protease using fluorogenic peptide substrate incubated for 30 mins prior to substrate addition measured after 10 mins by FRET assay
Sequence of Protease (Q9YQ12 whole entry): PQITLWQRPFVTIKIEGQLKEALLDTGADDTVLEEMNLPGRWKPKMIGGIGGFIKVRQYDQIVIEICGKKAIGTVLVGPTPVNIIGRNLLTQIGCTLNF

Sequence of Human immunodeficiency virus type 1 protease (Q72874 entry or part of it A71V/G73S/I84V/L10I/L63P/L90M): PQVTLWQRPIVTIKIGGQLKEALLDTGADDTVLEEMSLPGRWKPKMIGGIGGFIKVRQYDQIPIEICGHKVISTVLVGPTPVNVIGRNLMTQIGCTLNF

O=C1c2cccc([N+](=O)[O-])c2C(=O)N1c1ccc2[nH]c(=S)sc2c1
Ki [1]: 91 µM | Ki (Protease): 96 µM
